Data on two compounds can be found in patent US10494378B2, “Fused ring pyrimidine compound, intermediate, and preparation method, composition and use thereof” (GUANGZHOU MAXINOVEL PHARMACEUTICALS CO., LTD., priority 2015, dated 2019).

Common to all, as to format: biochemical
One assay has as its target T1, LYNα kinase (Homo sapiens, UniProt P07948).
T1 construct: purchased Carna 08-171
Briefly: IC50 evaluation assay of Src family kinase inhibition: LYNα. The settings on record: 28° C.; average of two tests; read-out: IC50 (nM) inhibiting Src family kinase LYNα. The procedure:
(§1) 1. The compound was dissolved in 100% DMSO, diluted into solutions with appropriate concentration gradients with water according to experimental requirement, and added to a 96-well plate.
2. c-Src kinase (Carna, Cat. No. 08-173, Lot. No. 05CBS-1367), LYNαkinase (Carna, Cat. No. 08-171, Lot. No. 06CBS-3296D), FYN kinase (Carna, Cat. No. 08-068, Lot. No. 05CBS-1032), LCK kinase (Carna, Cat. No. 08-170, Lot. No. 07CBS-2482), HCK kinase (BPS, Cat. No. 40440, Lot. No. 1001), FGR kinase (Carna, Cat. No. 08-166, Lot. No. 05CBS-2781), YES kinase (Carna, Cat. No. 08-175, Lot. No. 06CBS-3247) were diluted to the optimum concentration with the following buffer solution: 50 mM HEPES, pH 7.5, 0.0015% Brij-35, 10 mM MgCl2, 2 mM DTT. Transfer to the 96-well plate and incubate with the compound at 28° C. for a period of time.
(§2) 3. The buffer solution (100 mM HEPES, pH 7.5, 0.0015% Brij-35, 0.2% Coating Reagent and […]) was added to terminate the reaction.
(§3) 4. The conversion rate was read with Caliper Reader. The inhibition rate was calculated as the average of two tests.

The target in another assay is T2, FLT3-ITD kinase (Homo sapiens, UniProt P36888).
T2 sequence (P36888 1-993): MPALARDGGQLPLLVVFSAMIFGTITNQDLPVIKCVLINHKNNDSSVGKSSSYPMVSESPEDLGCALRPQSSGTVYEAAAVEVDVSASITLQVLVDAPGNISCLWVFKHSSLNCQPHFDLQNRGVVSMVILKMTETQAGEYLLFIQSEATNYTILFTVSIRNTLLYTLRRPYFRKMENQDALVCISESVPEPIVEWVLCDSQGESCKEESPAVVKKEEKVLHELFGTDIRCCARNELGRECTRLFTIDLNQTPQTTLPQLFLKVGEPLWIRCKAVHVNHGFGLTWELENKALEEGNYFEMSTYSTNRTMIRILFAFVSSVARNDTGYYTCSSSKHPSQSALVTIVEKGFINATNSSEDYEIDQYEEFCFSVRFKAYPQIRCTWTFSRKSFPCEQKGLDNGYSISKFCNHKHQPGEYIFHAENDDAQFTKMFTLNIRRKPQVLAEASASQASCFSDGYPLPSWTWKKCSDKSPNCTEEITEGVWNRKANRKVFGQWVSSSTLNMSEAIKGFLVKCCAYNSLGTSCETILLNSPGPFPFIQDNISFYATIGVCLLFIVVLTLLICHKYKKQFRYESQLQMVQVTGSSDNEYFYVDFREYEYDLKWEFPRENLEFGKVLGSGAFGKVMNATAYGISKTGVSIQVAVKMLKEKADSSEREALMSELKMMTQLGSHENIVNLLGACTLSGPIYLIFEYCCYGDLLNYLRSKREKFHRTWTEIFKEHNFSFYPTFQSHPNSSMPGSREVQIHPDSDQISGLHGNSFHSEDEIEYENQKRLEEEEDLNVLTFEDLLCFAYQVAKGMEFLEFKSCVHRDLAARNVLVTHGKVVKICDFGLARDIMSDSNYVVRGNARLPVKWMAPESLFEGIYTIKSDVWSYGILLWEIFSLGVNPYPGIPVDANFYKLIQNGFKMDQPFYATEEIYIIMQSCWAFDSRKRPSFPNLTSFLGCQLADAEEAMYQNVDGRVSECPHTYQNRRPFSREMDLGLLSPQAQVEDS
Briefly: IC50 evaluation assay of FLT3-ITD kinase inhibition (Caliper). The settings on record: 28° C.; average of two tests; read-out: IC50 (nM) inhibiting FLT3-ITD kinase. The procedure:
as §1
(§4) 2. FLT3 kinase (Carna, Cat. No. 08-154, Lot. No. 07CBS-2350), FLT3-ITD kinase (Invitrogen, Cat. No. PV6191, Lot. No. 1753453) and FLT3-D835Y kinase (Invitrogen, Cat. No. PR7450A, Lot. No. 1629729C) were diluted to the optimum concentration with the following buffer solution: 50 mM HEPES, pH 7.5, 0.0015% Brij-35, 10 mM MgCl2, 2 mM DTT. Transfer to the 96-well plate and incubate with the compound at 28° C. for a period of time.
as §2, §3

The target in another assay is T3, FLT3-D835Y kinase (Homo sapiens, UniProt P36888, D835Y).
T3 construct: purchased Invitrogen PR7450A
T3 sequence (P36888 27-993 D835Y): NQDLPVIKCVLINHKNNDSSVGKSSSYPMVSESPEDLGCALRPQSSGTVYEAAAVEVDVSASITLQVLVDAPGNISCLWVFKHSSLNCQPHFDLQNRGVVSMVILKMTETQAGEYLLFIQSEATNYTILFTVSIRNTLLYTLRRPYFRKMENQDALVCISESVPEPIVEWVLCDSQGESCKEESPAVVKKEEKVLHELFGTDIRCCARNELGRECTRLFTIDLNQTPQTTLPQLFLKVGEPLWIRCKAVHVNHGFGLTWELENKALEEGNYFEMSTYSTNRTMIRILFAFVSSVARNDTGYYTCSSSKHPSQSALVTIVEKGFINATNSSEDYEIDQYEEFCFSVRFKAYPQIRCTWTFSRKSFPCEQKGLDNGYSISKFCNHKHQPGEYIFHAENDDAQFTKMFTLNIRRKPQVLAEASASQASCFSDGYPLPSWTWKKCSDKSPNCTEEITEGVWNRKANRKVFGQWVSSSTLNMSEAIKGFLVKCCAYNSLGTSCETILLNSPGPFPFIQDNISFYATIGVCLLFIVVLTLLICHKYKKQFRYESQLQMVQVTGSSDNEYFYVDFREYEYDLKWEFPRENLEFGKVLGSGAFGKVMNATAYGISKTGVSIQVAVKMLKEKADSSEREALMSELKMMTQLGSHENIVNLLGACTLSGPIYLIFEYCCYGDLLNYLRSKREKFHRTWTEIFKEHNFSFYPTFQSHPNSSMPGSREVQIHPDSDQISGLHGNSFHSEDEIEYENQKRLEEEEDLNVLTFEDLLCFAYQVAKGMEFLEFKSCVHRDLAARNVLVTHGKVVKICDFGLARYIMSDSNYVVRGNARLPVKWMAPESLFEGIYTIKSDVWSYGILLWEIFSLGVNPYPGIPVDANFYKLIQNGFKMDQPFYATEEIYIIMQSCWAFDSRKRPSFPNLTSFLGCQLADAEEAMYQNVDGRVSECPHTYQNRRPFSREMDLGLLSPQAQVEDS
Description: IC50 evaluation assay of FLT3-D835Y kinase inhibition (Caliper). The settings on record: 28° C.; average of two tests; read-out: IC50 (nM) inhibiting FLT3-D835Y kinase. The procedure:
as §1, §4, §2, §3

T1 sequence (P07948 whole entry): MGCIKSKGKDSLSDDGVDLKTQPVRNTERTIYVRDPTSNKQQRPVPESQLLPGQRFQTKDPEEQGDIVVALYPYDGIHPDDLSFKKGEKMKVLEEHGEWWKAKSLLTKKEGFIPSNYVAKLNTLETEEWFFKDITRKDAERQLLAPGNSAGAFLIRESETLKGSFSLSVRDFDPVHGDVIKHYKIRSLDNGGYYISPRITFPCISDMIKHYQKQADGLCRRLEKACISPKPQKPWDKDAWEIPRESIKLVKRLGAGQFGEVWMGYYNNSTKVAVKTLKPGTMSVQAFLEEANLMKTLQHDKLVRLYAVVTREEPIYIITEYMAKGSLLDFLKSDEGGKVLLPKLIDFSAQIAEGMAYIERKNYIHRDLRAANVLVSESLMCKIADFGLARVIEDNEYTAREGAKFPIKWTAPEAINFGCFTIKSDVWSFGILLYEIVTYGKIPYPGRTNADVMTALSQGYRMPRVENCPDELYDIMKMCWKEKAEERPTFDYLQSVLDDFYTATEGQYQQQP

As to `COc1cc(F)ccc1-c1c(C)sc2cnc(Nc3cnn(C4CCNCC4)c3)nc12` [Compound 31, N-[7-(4-fluoro-2-methoxyphenyl)-6-methylthieno[3,2-d]pyrimidinyl-2-yl]-1-(piperidinyl-4-yl)-1H-pyrazol-4-amine], the half-inhibitory concentration (IC50) at LYNα kinase stood at 1.3 nM; on FLT3-ITD kinase, 0.34 nM; on FLT3-D835Y kinase, 0.2 nM.

On to `COc1cc(F)ccc1-c1c(C)sc2cnc(Nc3cnn(C4CCN(CCO)CC4)c3)nc12` [Compound 34, 2-[4-(4-{[7-(4-fluoro-2-methoxyphenyl)-6-methylthieno[3,2-d]pyrimidinyl-2-yl]amino}-1H-pyrazol-1-yl)-piperidinyl-1-yl]-1-ethanol], for which the IC50 on LYNα kinase was under 5 nM; on FLT3-ITD kinase it was 0.33 nM; at FLT3-D835Y kinase, 0.23 nM.

Usually IC50 stands for the midpoint of a concentration-inhibition curve.
